Source: patent US7820703B2, “Lysophosphatidic acid receptor selective antagonists” (University of Virginia Patent Foundation, priority 2004, dated 2010)
Entries after “also recorded” stand apart in the source; their conditions may differ. One block for each molecule: values may come before it.

How the values were obtained:
Type in all cases: biochemical
[1] = molecular target: T1, human LPA3 (Homo sapiens, UniProt Q9UBY5); assay: GTP[γ35S] binding assay, agonist activity at LPA3; set-up: expressed in transfected cells; host or cells: HEK293T cells (membranes); conditions: for LPA3 Emax: LPA = 100; for EC50: transfected HEK293T cell membranes
T1 sequence (Q9UBY5 1-353): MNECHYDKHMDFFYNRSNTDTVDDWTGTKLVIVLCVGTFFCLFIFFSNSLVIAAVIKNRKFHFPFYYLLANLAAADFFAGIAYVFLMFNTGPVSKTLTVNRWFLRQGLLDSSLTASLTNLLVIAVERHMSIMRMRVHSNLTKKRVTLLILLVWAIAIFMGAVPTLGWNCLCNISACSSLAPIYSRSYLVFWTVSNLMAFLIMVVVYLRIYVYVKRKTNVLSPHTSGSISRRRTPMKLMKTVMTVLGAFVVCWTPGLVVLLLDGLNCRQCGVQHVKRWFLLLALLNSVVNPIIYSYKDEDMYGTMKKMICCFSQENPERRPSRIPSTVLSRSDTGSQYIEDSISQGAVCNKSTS
Protocol: (§1) The appropriate receptor plasmid DNA (encoding mouse LPA1, human LPA2 or human LPA3) was mixed with equal amounts of expression plasmids (pcDNA3) encoding a mutated (C351F) rat Gi2a, cow β1, and γ2 proteins and these DNAs were used to transfect monolayers of HEK293T cells (where ‘T’ indicates expression of the SV-40 virus large T antigen) using the calcium phosphate precipitate method. After about 60 hours, cells were harvested, membranes were prepared, aliquoted and stored at −70° C. until use.
(§2) The GTP[35 γS] assay was performed as described by us previously. Membranes containing 5 ug of protein were incubated in 0.1 ml GTP-binding buffer (in mM: HEPES 50, NaCl 100, MgCl2 10, pH7.5) containing […], […], 0.1 nM GTP[35 γS] (1200 Ci/mmol), and indicated lipid(s) for 30 minutes at 30° C. Samples were analyzed for membrane-bound radionuclide using a Brandel Cell Harvester (Gaithersburg, Md.). The C351F mutation renders the Gi2α protein resistant to inactivation by pertussis toxin or the alkylating agent N-ethylmaleimide; however in practice background binding was sufficiently low to obviate these maneuvers.
(§3) This assay isolates each recombinant LPA receptor and allows analysis of all three receptors using the same system.
(§4) Membranes prepared from these cells are used to measure GTPγ[^35S] binding as a function of test compound concentration. The resulting dose-response curves provide relative potency (EC50) and efficacy (Emax) for the test compounds.

[2] = molecular target: T2, human LPA2 (Homo sapiens, UniProt Q9HBW0); assay: GTP[γ35S] binding assay, agonist activity at LPA2; set-up: expressed in transfected cells; host or cells: HEK293T cells (membranes); conditions: for EC50: transfected HEK293T cell membranes; for LPA2 Emax: LPA = 100
T2 sequence (Q9HBW0 whole entry): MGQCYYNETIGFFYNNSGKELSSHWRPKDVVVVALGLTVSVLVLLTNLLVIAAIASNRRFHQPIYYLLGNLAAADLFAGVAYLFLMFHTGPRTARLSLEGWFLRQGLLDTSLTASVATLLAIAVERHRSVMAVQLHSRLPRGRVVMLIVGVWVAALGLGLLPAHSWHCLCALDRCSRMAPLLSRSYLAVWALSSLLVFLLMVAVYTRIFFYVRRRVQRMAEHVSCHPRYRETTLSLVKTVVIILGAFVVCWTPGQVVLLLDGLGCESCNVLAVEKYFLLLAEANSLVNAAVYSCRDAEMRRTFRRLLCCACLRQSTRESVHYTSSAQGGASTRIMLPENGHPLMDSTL
Protocol: as §1
(§5) The GTP[35 γS] assay was performed as described by us previously. Membranes containing 5 ug of protein were incubated in 0.1 ml GTP-binding buffer (in mM: HEPES 50, NaCl 100, MgCl2 10, pH7.5) containing […], […], 0.1 nM GTP[35 γS] (1200 Ci/mmol), and indicated lipid(s) for 30 minutes at 30° C. Samples were analyzed for membrane-bound radionuclide using a Brandel Cell Harvester (Gaithersburg, Md.).
as §4

[3] = molecular target: T3, LPA1 receptor (Mus musculus, UniProt P61793); assay: antagonism of LPA-evoked GTP[γ35S] binding at LPA1; conditions: for antagonist activity at LPA1, in words: GTP[γ35S] binding; for IC50: antagonism of LPA-evoked GTP[γ35S] binding; for Ki: determined by Schild regression
T3 construct: expressed in transfected cells; host or cells: HEK293T cells (membranes)
T3 sequence (P61793 whole entry): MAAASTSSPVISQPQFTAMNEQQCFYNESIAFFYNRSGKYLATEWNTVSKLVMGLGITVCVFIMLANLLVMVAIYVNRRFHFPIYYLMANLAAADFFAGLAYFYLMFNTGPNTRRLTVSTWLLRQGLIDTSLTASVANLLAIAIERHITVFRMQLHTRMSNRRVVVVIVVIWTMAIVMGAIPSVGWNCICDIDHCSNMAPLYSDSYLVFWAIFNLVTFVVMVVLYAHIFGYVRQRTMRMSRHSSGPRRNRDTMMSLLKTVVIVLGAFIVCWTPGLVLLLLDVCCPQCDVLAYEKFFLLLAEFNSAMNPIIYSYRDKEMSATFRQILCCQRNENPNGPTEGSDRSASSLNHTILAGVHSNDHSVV
Protocol: as §1, §5
(§6) The X-intercept of the linear transformation is equal to the inverse log of the KI.
(§7) All compounds were characterized by ^1H and ^13C NMR, mass spectroscopy and, in certain cases, elemental analysis. A GTP[γ35S] binding assay was adapted to assess in vitro activity.
(§8) All compounds were characterized by ^1H and ^13C NMR, mass spectroscopy and, in most cases, C, H, N analyses. A membrane-based GTP[γ^35S] binding assay was adapted to assess in vitro activity at the LPA1 and LPA3 receptors.

[4] = molecular target: T1, human LPA3; assay: antagonism of LPA-evoked GTP[γ35S] binding at LPA3; set-up: expressed in transfected cells; host or cells: HEK293T cells (membranes); conditions: for antagonist activity at LPA3, in words: GTP[γ35S] binding; for IC50: antagonism of LPA-evoked GTP[γ35S] binding
Protocol: as §1, §5, §6, §7, §8

[5] = molecular target: mouse LPA1 (Mus musculus, UniProt P61793); assay: GTP[γ35S] binding assay, agonist activity at LPA1; set-up: expressed in transfected cells; host or cells: HEK293T cells (membranes); conditions: for LPA1 Emax: LPA = 100; for EC50: transfected HEK293T cell membranes
Chain of mouse LPA1 (P61793 whole entry): as above
Protocol: as §1, §2, §3, §4

[6] = molecular target: T4, LPP3 (PAP2b) (Homo sapiens, UniProt O14495); assay: LPP inhibition, competition with [32P]LPA, LPP3; conditions: competition with 50 nM [32P]LPA
T4 sequence (O14495 1-311): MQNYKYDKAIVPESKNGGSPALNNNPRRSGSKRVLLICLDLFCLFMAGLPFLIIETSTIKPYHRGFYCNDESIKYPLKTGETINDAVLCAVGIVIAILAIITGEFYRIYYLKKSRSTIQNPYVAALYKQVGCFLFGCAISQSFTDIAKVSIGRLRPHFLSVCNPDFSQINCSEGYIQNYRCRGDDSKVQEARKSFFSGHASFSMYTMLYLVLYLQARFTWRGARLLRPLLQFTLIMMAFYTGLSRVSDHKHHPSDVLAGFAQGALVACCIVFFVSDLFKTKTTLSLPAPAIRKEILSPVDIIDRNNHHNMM
Protocol: NOHPP was also tested for activity at the three cloned LPPs. Although the phosphonate head group eliminates the possibility of NOHPP acting as a substrate, it is possible that the compound could be a competitive inhibitor.

[7] = molecular target: T2, human LPA2; assay: antagonism of LPA-evoked GTP[γ35S] binding at LPA2; set-up: expressed in transfected cells; host or cells: HEK293T cells (membranes)
Protocol: as §1, §2
All compounds were characterized by ^1H and ^13C NMR, mass spectroscopy and, in certain cases, elemental analysis. A GTP[γ35S] binding assay was adapted to assess in vitro activity. […] The Ki values as determined by Schild regression are shown for the LPA1 receptor. […]

Molecule: 1-acyl, 2-hydroxyl-sn-glycerol-3-phosphate [LPA, reference compound]
LPA3 Emax [1]: 100
EC50 [1]: 262 nM
EC50 [2]: 6.8 nM

Molecule: CCCCCC=CCC=CCCCCCCCC(=O)NC(COP(=O)(O)O)Cc1ccc(OCc2ccccc2)cc1 (stereo not shown) [Compound 29e]
antagonist activity at LPA1, in words [3]: potency comparable to lead compound 26

Molecule: CCCCCCCCC=CCCCCCCCC(=O)NC(COP(=O)(O)O)Cc1ccc(OC(=O)c2ccc(N)cc2)cc1 (stereo not shown) [Compound 35p]
antagonist activity at LPA3, in words [4]: devoid of activity
antagonist activity at LPA1, in words [3]: devoid of activity

Molecule: CCCCCCCC/C=C\CCCCCCCC(=O)N[C@@H](COP(=O)(O)O)C(=O)c1ccc(OCc2ccccc2)cc1 [Compound 39a]
IC50 [4]: > 10000 nM
IC50 [3]: > 10000 nM

Molecule: CCCCCCCC/C=C\CCCCCCCC(=O)N[C@H](COP(=O)(O)O)C(=O)c1ccc(OCc2ccccc2)cc1 [Compound 39b]
IC50 [4]: > 10000 nM
antagonist activity at LPA1, in words [3]: retains potency comparable to 26
IC50 [3]: 2490 nM

Molecule: CCCCCCCC/C=C\CCCCCCCC(=O)N[C@H](COP(=O)(O)O)Cc1ccc(OCc2cccc(OC)n2)cc1 [Compound 57f]
IC50 [4]: 1090 nM
IC50 [3]: > 10000 nM

Molecule: CCCCCCCC/C=C\CCCCCCCC(=O)N[C@@H](COP(=O)(O)O)Cc1ccc(OCc2cc(OCC)ccn2)cc1 [Compound 57h]
IC50 [4]: 39 nM
IC50 [3]: 143 nM
Ki [3]: 26 nM

Molecule: CCCCCCCCC=CCCCCCCCC(=O)NC(COP(=O)(O)O)Cc1ccc(OCc2cc(OCC(F)(F)F)ccn2)cc1 (stereo not shown) [Compound 57i]
antagonist activity at LPA3, in words [4]: three-fold more potent
IC50 [4]: 48 nM
antagonist activity at LPA1, in words [3]: equipotent to 26a
IC50 [3]: 84 nM
Ki [3]: 19 nM

Molecule: CCCCCCCC/C=C\CCCCCCCC(=O)N[C@@H](COP(=O)(O)O)Cc1ccc(OCc2cc(OCCC)ccn2)cc1 [Compound 57j]
IC50 [3]: 141 nM
Ki [3]: 64 nM

Molecule: CCCCCCCC/C=C\CCCCCCCC(=O)N[C@@H](COP(=O)(O)O)Cc1ccc(OCc2ncc(C)c(OC)c2C)cc1 [Compound 57l]
IC50 [4]: 39 nM
IC50 [3]: 62 nM
Ki [3]: 28 nM

Molecule: CCCCCCCC/C=C\CCCCCCCC(=O)N[C@H](COP(=O)(O)O)Cc1ccc(OCc2ncc(C)c(OC)c2C)cc1 [Compound 57m]
IC50 [4]: 561 nM
IC50 [3]: 3690 nM

Molecule: CCCCCCCC/C=C\CCCCCCCC(=O)N[C@@H](COP(=O)(O)O)Cc1ccc(OCc2ccc3ccccc3n2)cc1 [Compound 57n]
IC50 [4]: 533 nM
IC50 [3]: 1430 nM

Molecule: CCCCCCCC/C=C\CCCCCCCC(=O)N[C@H](COP(=O)(O)O)Cc1ccc(OCc2cc(OC)c3ccccc3n2)cc1 [Compound 57p]
IC50 [4]: 2600 nM
IC50 [3]: > 10000 nM

Molecule: CCCCCCCC/C=C\CCCCCCCC(=O)N[C@@H](CN)COP(=O)(O)O [Compound 12048]
LPA3 Emax [1]: 3.8
EC50 [1]: > 5000 nM
LPA1 Emax [5]: 9.4
EC50 [5]: > 5000 nM
LPA2 Emax [2]: 36.4
EC50 [2]: > 5000 nM

Molecule: CCCCCCCC/C=C\CCCCCCCC(=O)NCCC(=O)P(=O)(O)O [VPC12060]
inhibition of LPP3 [6]: markedly better at the PAP2b (LPP3) than PAP2a (LPP1)

Second part, led by results:

antagonist activity at LPA3, in words [4]: improved potency over lead compound 26a
IC50 [4]: 150 nM
antagonist activity at LPA1, in words [3]: no antagonism
IC50 [3]: > 10000 nM
Molecule: CCCCCCCC/C=C\CCCCCCCC(=O)N[C@@H](CCP(=O)(O)O)Cc1ccc(OCc2ncc(C)c(OC)c2C)cc1 [Compound 63d]

LPA3 Emax [1]: 93.4
EC50 [1]: 113 nM
LPA1 Emax [5]: 107.6
EC50 [5]: 3.4 nM
LPA2 Emax [2]: 95.2
EC50 [2]: 18.3 nM
Molecule: CCCCCCCC/C=C\CCCCCCCC(=O)N[C@H](C)COP(=O)(O)O [VPC12086]
agonist activity at LPA1, in words [5]: more potent and efficacious than LPA; also recorded: more potent than 1-oleoyl LPA

LPA3 Emax [1]: 9.7
EC50 [1]: > 5000 nM
LPA1 Emax [5]: 48.1
EC50 [5]: 2900 nM
LPA2 Emax [2]: 6.9
EC50 [2]: > 5000 nM
Molecule: CCCCCCCC/C=C\CCCCCCCC(=O)N[C@@H](C)COP(=O)(O)O [VPC12101]

LPA3 Emax [1]: 83.5
EC50 [1]: 1080 nM
LPA1 Emax [5]: 66.8
EC50 [5]: 35.8 nM
LPA2 Emax [2]: 92.6
EC50 [2]: 162 nM
Molecule: CCCCCCCC/C=C\CCCCCCCC(=O)N[C@H](CC)COP(=O)(O)O [VPC12109]

LPA3 Emax [1]: 102.9
EC50 [1]: 684 nM
agonist activity at LPA1, in words [5]: more potent than 1-oleoyl LPA
LPA1 Emax [5]: 98.7
EC50 [5]: 4.9 nM
LPA2 Emax [2]: 103.2
EC50 [2]: 50.3 nM
Molecule: CCCCCCCC/C=C\CCCCCCCC(=O)N[C@H](CN)COP(=O)(O)O [VPC12178]

agonist activity at LPA1, in words [5]: more potent than 1-oleoyl LPA
Molecule: CCCCCCCC/C=C\CCCCCCCC(=O)N[C@H](CO)COP(=O)(O)O [VPC31143]

agonist activity at LPA3, in words [1]: agonist
agonist activity at LPA1, in words [5]: agonist
antagonist activity at LPA2, in words [7]: antagonist activity
Molecule: CCCCCCCC/C=C\CCCCCCCC(=O)N[C@@H](COP(=O)(O)O)Cc1ccc(OCc2ccc(CCCCC)cc2)cc1 [VPC31162]
